# Test results published in paper PMC11852716, “c-di-GMP phosphodiesterase ProE interacts with quorum sensing protein PqsE to promote pyocyanin production in Pseudomonas aeruginosa” (mSphere, 2025).
# pKd: −log10 of the molar value.
# Molecular target: T1, ProE (Pseudomonas aeruginosa, UniProt Q9HTQ9)
# T1 construct: gene PA5295
# Experiment: surface plasmon resonance
# Type: binding
# T1 sequence (Q9HTQ9 entry or part of it): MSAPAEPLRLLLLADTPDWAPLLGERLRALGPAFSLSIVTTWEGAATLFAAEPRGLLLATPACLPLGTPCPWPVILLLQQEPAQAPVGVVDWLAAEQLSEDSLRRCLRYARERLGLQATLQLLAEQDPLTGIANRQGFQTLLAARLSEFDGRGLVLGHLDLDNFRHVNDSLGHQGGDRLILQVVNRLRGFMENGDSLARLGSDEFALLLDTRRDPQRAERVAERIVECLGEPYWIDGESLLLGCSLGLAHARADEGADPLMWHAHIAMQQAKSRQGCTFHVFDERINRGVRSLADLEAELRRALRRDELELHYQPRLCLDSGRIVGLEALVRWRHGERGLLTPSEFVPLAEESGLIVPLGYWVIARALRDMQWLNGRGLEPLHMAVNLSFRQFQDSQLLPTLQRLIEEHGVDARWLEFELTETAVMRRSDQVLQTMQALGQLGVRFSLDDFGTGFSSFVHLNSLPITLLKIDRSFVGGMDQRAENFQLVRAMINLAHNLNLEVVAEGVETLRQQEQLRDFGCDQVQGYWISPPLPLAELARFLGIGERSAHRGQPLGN
smiles,measurement,value
Nc1nc2c(ncn2[C@@H]2O[C@@H]3CO[P@](=O)(O)O[C@H]4[C@@H](O)[C@H](n5cnc6c(=O)[nH]c(N)nc65)O[C@@H]4CO[P@](=O)(O)O[C@H]3[C@H]2O)c(=O)[nH]1 [c-di-GMP],pKd,5.57
